Laboratory results from paper PMC8942558 (Emerging Microbes & Infections, 2022).
Read-outs that look alike come from different tables or passages of the source.

Key:
[1] = tested on: YFV-17D^DiD; type: cell-based, Yellow fever virus
[2] = tested on: WT-YFV strain FJYF03/2016; parameters: species or system C57 mice; conditions: mouse, in vivo
[3] = tested on: dengue virus (DENV); type: cell-based
[4] = tested on: YFV-17D; type: cell-based, Yellow fever virus
[5] = tested on: Japanese encephalitis virus (JEV); type: cell-based
[6] = tested on: Zika virus (ZIKV); type: cell-based
[7] = molecular target: WNV NS5 (West Nile virus, UniProt Q9Q6P4); experiment: biochemical; type: binding
[8] = tested on: YFV-17D; type: cell-based, Yellow fever virus; remark: listed apart in the source
[9] = tested on: YFV-17D; type: cell-based, Yellow fever virus; remark: listed apart in the source
[10] = tested on: YFV-17D; type: cell-based, Yellow fever virus; remark: listed apart in the source
[11] = tested on: WNV; type: cell-based, West Nile virus
[12] = tested on: YFV; type: cell-based, Yellow fever virus
[13] = tested on: West Nile virus (WNV); type: cell-based
[14] = tested on: YFV replicon; type: cell-based, Yellow fever virus
[15] = molecular target: YFV NS5 (Yellow fever virus, UniProt P03314); experiment: biochemical; type: binding
[16] = tested on: hepatitis C virus (HCV); type: cell-based
[17] = tested on: clathrin-mediated endocytosis; type: cell-based, Human
[18] = tested on: WT-YFV strain FJYF03/2016; parameters: species or system A129^−/− mice; conditions: mouse, in vivo

Sequence of YFV NS5 (P03314 2507-3411 limits assumed): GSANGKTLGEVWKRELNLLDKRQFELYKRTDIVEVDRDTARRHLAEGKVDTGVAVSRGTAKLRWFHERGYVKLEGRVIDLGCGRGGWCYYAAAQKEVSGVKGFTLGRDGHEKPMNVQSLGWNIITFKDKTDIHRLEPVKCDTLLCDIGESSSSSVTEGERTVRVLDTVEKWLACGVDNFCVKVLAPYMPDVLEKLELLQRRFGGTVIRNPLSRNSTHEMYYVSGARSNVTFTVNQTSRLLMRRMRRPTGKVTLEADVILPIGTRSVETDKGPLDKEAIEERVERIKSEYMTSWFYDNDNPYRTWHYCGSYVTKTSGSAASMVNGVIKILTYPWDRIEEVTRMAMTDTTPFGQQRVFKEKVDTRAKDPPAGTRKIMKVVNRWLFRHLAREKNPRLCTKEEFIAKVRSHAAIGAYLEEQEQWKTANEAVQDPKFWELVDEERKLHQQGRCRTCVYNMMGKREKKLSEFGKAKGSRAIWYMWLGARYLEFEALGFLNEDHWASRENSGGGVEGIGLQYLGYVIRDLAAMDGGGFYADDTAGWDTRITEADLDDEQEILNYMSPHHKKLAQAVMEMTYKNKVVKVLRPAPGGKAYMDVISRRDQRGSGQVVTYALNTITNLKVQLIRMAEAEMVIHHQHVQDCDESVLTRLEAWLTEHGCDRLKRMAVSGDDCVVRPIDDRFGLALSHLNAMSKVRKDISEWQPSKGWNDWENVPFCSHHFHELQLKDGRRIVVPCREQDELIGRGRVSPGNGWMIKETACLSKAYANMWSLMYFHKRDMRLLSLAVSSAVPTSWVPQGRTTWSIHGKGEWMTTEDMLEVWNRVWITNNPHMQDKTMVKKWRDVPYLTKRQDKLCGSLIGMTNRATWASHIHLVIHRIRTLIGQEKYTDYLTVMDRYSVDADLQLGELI
Sequence of WNV NS5 (Q9Q6P4 2529-3433 limits assumed): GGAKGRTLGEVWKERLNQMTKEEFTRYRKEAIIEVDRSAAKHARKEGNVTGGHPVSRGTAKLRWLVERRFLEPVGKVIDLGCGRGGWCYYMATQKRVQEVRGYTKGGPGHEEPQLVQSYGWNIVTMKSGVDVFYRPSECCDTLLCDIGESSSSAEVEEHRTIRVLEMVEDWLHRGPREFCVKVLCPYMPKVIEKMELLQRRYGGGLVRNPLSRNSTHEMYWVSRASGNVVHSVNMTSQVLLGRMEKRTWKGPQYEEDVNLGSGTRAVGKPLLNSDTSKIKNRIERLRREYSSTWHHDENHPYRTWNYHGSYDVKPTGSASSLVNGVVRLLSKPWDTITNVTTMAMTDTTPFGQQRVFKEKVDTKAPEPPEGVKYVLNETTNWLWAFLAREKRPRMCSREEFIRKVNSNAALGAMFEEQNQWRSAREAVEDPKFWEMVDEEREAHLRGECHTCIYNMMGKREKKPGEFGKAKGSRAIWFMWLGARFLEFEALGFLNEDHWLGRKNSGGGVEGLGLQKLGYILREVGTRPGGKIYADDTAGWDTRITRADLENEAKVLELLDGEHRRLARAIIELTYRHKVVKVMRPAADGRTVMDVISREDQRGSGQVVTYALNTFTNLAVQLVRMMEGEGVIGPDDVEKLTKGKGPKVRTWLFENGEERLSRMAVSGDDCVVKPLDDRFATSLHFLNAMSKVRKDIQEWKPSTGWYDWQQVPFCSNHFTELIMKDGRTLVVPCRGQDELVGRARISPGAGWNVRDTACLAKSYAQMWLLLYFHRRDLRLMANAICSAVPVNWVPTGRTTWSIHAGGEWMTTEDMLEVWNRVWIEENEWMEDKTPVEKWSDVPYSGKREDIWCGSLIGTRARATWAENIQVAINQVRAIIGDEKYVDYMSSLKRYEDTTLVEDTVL

Cl.N [NH4Cl]
virion-host cell fusion (DiD fluorescence signal) [1]: fluorescence signal reduced significantly

CO[C@H]1/C=C/O[C@@]2(C)Oc3c(C)c(O)c4c(O)c(c(/C=N/N5CCN(C6CCCC6)CC5)c(O)c4c3C2=O)NC(=O)/C(C)=C\C=C\[C@H](C)[C@H](O)[C@@H](C)[C@@H](O)[C@@H](C)[C@H](OC(C)=O)[C@@H]1C [Rifapentine]
body weight of surviving mice [2]: all recovered to normal levels
clinical symptoms [2]: fewer injury features
survival of mice [2]: significantly improved the survival of mice
survival rate [2]: approximately 40%
inhibitory effect on DENV infection [3]: no obvious inhibitory effect
effect on YFV infection in kinetic test [4]: obstructive effect on YFV infection throughout the entire phase of viral entry and post-entry stages
inhibitory effect on JEV infection [5]: no obvious inhibitory effect
inhibitory effect on ZIKV infection [6]: no obvious inhibitory effect
Kd [7]: 54.6 µM
YFV attachment to the cell surface [8]: impeded YFV attachment to the cell surface in a dose-dependent manner
infectivity of virions incubated with compound [9]: no obvious differences in infectivity
intracellular YFV RNA level [10]: suppressed in a dose-dependent manner
WNV binding [11]: did not affect WNV binding
YFV assembly and release [12]: did not influence YFV assembly and release
virion-host cell fusion (DiD fluorescence signal) [1]: no inhibitory effect
inhibitory effect on WNV infection [13]: slight suppressive activity above 5 μM
YFV replication in replicon cells [14]: robustly abolished YFV replication from 1 to 25 μM
Kd [15]: 20.8 µM
inhibitory effect on HCV infection [16]: no obvious inhibitory effect
TF uptake [17]: No major changes
body weight of survival mice [18]: recovered to almost the normal level
clinical signs [18]: slowed down or reduced the occurrence of clinical signs
survival rate [18]: significantly enhanced the survival rate
virus titres in kidney [18]: did not recognize distinctive changes
virus titres in liver [18]: did not recognize distinctive changes
virus titres in serum [18]: reduced virus titres significantly
virus titres in spleen [18]: reduced virus titres significantly

CC(C)OC(=O)[C@H](C)N[P@](=O)(OC[C@H]1O[C@@H](n2ccc(=O)[nH]c2=O)[C@](C)(F)[C@@H]1O)Oc1ccccc1 [Sofosbuvir]
YFV replication in replicon cells [14]: relatively good inhibitory effect
Kd [15]: 6140 µM
survival rate [18]: slight protective activity in the highest infection-dose group

CO/C1=C\C(C)=C\[C@@H](C)[C@@H](O)[C@@H](C)C/C(C)=C/C=C/[C@H](OC)[C@@H]([C@@H](C)[C@@H](O)[C@H](C)[C@@]2(O)C[C@@H](O)[C@H](C)[C@@H](C(C)C)O2)OC1=O [bafilomycin A1]
virion-host cell fusion (DiD fluorescence signal) [1]: fluorescence signal reduced significantly
